Test results taken from patent US9683019B2, “Cyclic polypeptides for the treatment of heart failure” (priority 2013, dated 2017).
Like-named read-outs stand apart in the source and are kept apart here. Where a SMILES comes first, the peptide text is derived from it. Bridges are numbered along the chain shown (N, C = ends). [ ]: non-standard residue; d: D form. NMeF = CN[C@@H](Cc1ccccc1)C(=O)O; pGlu = O=C1CC[C@@H](C(=O)O)N1; d(hCys) = N[C@H](CCS)C(=O)O; dNle = CCCC[C@@H](N)C(=O)O; dNva = CCC[C@@H](N)C(=O)O; hCys = N[C@@H](CCS)C(=O)O; Nle = CCCC[C@H](N)C(=O)O; dAbu = CC[C@@H](N)C(=O)O

How the values were obtained:
[1] = biological target: T1, hAPJ (Homo sapiens, UniProt P35414); test: hAPJ Calcium Flux Assay; type: cell-based; settings: Chem-5 APJ stable cells, calcium flux stimulation; read-out: hAPJ Ca2+ Flux EC50
T1 sequence (P35414 1-380): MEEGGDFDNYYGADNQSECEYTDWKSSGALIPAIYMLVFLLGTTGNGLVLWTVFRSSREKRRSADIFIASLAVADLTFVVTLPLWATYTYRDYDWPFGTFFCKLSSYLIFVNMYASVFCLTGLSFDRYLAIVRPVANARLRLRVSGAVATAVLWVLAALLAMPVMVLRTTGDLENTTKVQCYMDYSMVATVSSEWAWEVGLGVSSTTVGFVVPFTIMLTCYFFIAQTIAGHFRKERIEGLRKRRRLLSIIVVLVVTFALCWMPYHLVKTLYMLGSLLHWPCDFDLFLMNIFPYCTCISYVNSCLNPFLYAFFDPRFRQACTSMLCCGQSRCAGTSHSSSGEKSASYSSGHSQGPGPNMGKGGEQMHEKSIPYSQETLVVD
Procedure: Chem-5 APJ stable cells (Millipore # HTS068C) were plated in 384-well format with 10,000 cells/well in 25 ul growth media, then grown 24 hours in a 37° C. tissue culture incubator. One hour before the assay, 25 ul/well FLIPR Calcium 4 dye (Molecular Devices R8142) with 2.5 mM probenecid was added, and cells were incubated one hour in a 37° C. tissue culture incubator. Peptides were solubilized in HBSS, HEPES & 0.1% BSA buffer, and serially-diluted 10-fold, from 50 uM to 5 pM, in triplicate. FLIPR Tetra was used to add peptide to the cells with dye (1:5, for final peptide concentrations ranging from 10 uM to 1 pM). FLIPR dye inside the cells emitted fluorescence after binding to calcium, while fluorescence from outside the cells was masked. […] Readings were done for 3 minutes total, beginning 10 seconds before the peptide addition. Maximum-minimum values were calculated and plotted for each peptide concentration, and GraphPad prism software was used to calculate EC50 values at the curve inflection points, for calcium flux stimulation by peptides.

[2] = Surrogate Activity-Based Plasma Stability Assay; type: in vitro ADME; settings: rat
Source text: Surrogate Activity-Based Plasma Stability Assay:
2) Calculate slope of value above and […]

| EC50 [1] | half-life [2] | SMILES | half-life ([2]; read-out: Surrogate activity-based Plasma stability t½) |
| --- | --- | --- | --- |
| 0.0214 µM | 10 min | CCCC[C@H](NC(=O)[C@@H]1CCCN1C(=O)CNC(=O)[C@H](CCCCN)NC(=O)[C@@H]1CSSC[C@@H](NC(C)=O)C(=O)N[C@@H](CCCNC(=N)N)C(=O)N2CCC[C@H]2C(=O)N[C@@H](CCCNC(=N)N)C(=O)N[C@@H](CC(C)C)C(=O)N[C@@H](CO)C(=O)N1)C(=O)N1CCC[C@H]1C(=O)N[C@@H](Cc1ccccc1)C(=O)O [Example 12, Ac-c*-R-P-R-L-S-C*-K-G-P-Nle-P-F-OH] (Ac-[dC]RPRLSCKGP[Nle]PF-OH; disulfide 1-7) | – |
| 0.193 µM | 17.7 min | CCCC[C@H](NC(=O)[C@@H]1CCCN1C(=O)CNC(=O)[C@H](CCCCN)NC(=O)[C@H]1CSSC[C@H](NC(C)=O)C(=O)N[C@@H](CCCNC(=N)N)C(=O)N2CCC[C@H]2C(=O)N[C@@H](CCCNC(=N)N)C(=O)N[C@@H](CC(C)C)C(=O)N[C@@H](CO)C(=O)N1)C(=O)N1CCC[C@H]1C(=O)N[C@@H](Cc1ccccc1)C(=O)O [Example 15, Ac-C*-R-P-R-L-S-c*-K-G-P-Nle-P-F-OH] (Ac-CRPRLS[dC]KGP[Nle]PF-OH; disulfide 1-7) | – |
| – | 13 min | CCCC[C@H](NC(=O)[C@@H]1CCCN1C(=O)CNC(=O)[C@H](CCCCN)NC(=O)[C@@H]1CSSC[C@H](NC(=O)[C@@H]2CCCN2C(=O)[C@H](CCCNC(=N)N)NC(=O)[C@@H]2CCC(=O)N2)C(=O)N[C@@H](CC(C)C)C(=O)N[C@@H](CO)C(=O)N1)C(=O)N1CCC[C@H]1C(=O)N[C@@H](Cc1ccccc1)C(=O)O [Example 28, pE-R-P-C*-L-S-C*-K-G-P-Nle-P-F-OH] ([pGlu]RPCLSCKGP[Nle]PF-OH; disulfide 4-7) | – |
| 0.0042 µM | 705 min | CCCC[C@H](NC(=O)[C@@H]1CCCN1C(=O)CNC(=O)[C@H](CCCCN)NC(=O)[C@@H]1CSSC[C@H](NC(=O)[C@@H]2CCCN2C(=O)[C@H](CCCNC(=N)N)NC(=O)[C@@H]2CCC(=O)N2)C(=O)N[C@@H](CC(C)C)C(=O)N[C@@H](CO)C(=O)N1)C(=O)N1CCC[C@H]1C(=O)N(C)[C@@H](Cc1ccccc1)C(=O)O [Example 29, pE-R-P-C*-L-S-C*-K-G-P-Nle-P-(N-Me)F-OH] ([pGlu]RPCLSCKGP[Nle]P[NMeF]-OH; disulfide 4-7) | – |
| – | > 1000 min | CCCC[C@@H](NC(=O)[C@@H]1CCCN1C(=O)CNC(=O)[C@H](CCCCN)NC(=O)[C@@H]1CSSC[C@H](NC(=O)[C@@H]2CCCN2C(=O)[C@H](CCCNC(=N)N)NC(=O)[C@@H]2CCC(=O)N2)C(=O)N[C@@H](CC(C)C)C(=O)N[C@@H](CO)C(=O)N1)C(=O)N[C@H](C)C(=O)N[C@H](Cc1ccccc1)C(=O)O [Example 33, pE-R-P-C*-L-S-C*-K-G-P-(D-Nle)-a-f-OH] ([pGlu]RPCLSCKGP[dNle][dA][dF]-OH; disulfide 4-7) | – |
| – | > 1000 min | CCCC[C@@H](NC(=O)[C@@H]1CCCN1C(=O)CNC(=O)[C@H](CCCCN)NC(=O)[C@@H]1CSSC[C@H](NC(=O)[C@@H]2CCCN2C(=O)[C@H](CCCNC(=N)N)NC(=O)[C@@H]2CCC(=O)N2)C(=O)N[C@@H](CC(C)C)C(=O)N[C@@H](CO)C(=O)N1)C(=O)N[C@H](Cc1ccccc1)C(=O)O [Example 34, pE-R-P-C*-L-S-C*-K-G-P-(D-Nle)-f-OH] ([pGlu]RPCLSCKGP[dNle][dF]-OH; disulfide 4-7) | – |
| – | 47 min | CCCC[C@@H](NC(=O)[C@@H]1CCCN1C(=O)CNC(=O)[C@H](CCCCN)NC(=O)[C@H]1CCSSC[C@@H](NC(=O)[C@@H]2CCCN2C(=O)[C@H](CCCNC(=N)N)NC(=O)[C@@H]2CCC(=O)N2)C(=O)N[C@@H](CC(C)C)C(=O)N[C@@H](CO)C(=O)N1)C(=O)N[C@H](C)C(=O)N[C@H](Cc1ccc(O)cc1)C(=O)O [Example 37, pE-R-P-c*-L-S-(D-hC)*-K-G-P-(D-Nle)-a-y-OH] ([pGlu]RP[dC]LS[d(hCys)]KGP[dNle][dA][dY]-OH; disulfide 4-7) | – |
| – | 41 min | CCCC[C@@H](NC(=O)[C@@H]1CCCN1C(=O)CNC(=O)[C@H](CCCCN)NC(=O)[C@@H]1CCSSCC[C@@H](NC(=O)[C@@H]2CCCN2C(=O)[C@H](CCCNC(=N)N)NC(=O)[C@@H]2CCC(=O)N2)C(=O)N[C@@H](CC(C)C)C(=O)N[C@@H](CO)C(=O)N1)C(=O)N[C@H](CCC)C(=O)N[C@H](Cc1ccccc1)C(=O)O [Example 38, pE-R-P-(D-hC)*-L-S-hC*-K-G-P-(D-Nle)-(D-Nva)-f-OH] ([pGlu]RP[d(hCys)]LS[hCys]KGP[dNle][dNva][dF]-OH; disulfide 4-7) | – |

More lines, now with the values behind:

| SMILES | EC50 [1] | half-life [2] | half-life ([2]; read-out: Surrogate activity-based Plasma stability t½) |
| --- | --- | --- | --- |
| CCCC[C@H](NC(=O)[C@@H]1CCCN1C(=O)CNC(=O)[C@H](CCCCN)NC(=O)[C@@H]1CCSSC[C@H](NC(C)=O)C(=O)N[C@@H](CCCNC(=N)N)C(=O)N2CCC[C@H]2C(=O)N[C@@H](CCCNC(=N)N)C(=O)N[C@@H](CC(C)C)C(=O)N[C@@H](CO)C(=O)N1)C(=O)N1CCC[C@H]1C(=O)N[C@@H](Cc1ccccc1)C(=O)O [Example 6, Ac-C*-R-P-R-L-S-hC*-K-G-P-Nle-P-F-OH] (Ac-CRPRLS[hCys]KGP[Nle]PF-OH; disulfide 1-7) | 0.0214 µM | 5 min | – |
| CCCC[C@@H](NC(=O)[C@@H]1CCCN1C(=O)[C@H](C)NC(=O)[C@H](CCCCN)NC(=O)[C@@H]1CSSC[C@H](NC(=O)[C@H](CCCNC(=N)N)NC(=O)[C@@H]2CCC(=O)N2)C(=O)N[C@@H](CCCNC(=N)N)C(=O)N[C@@H](CC(C)C)C(=O)N[C@@H](CO)C(=O)N1)C(=O)N[C@H](C)C(=O)N[C@H](Cc1ccccc1)C(=O)O [Example 24, pE-R-C*-R-L-S-C*-K-A-P-(D-Nle)-a-f-OH] ([pGlu]RCRLSCKAP[dNle][dA][dF]-OH; disulfide 3-7) | – | 1700 min | – |
| CCCC[C@@H](NC(=O)[C@@H]1CCCN1C(=O)CNC(=O)[C@H](CCCCN)NC(=O)[C@@H]1CSSC[C@H](NC(=O)[C@H](CCCNC(=N)N)NC(=O)[C@@H]2CCC(=O)N2)C(=O)N[C@@H](CCCNC(=N)N)C(=O)N[C@@H](CC(C)C)C(=O)N[C@@H](CO)C(=O)N1)C(N)=O [Example 25, pE-R-C*-R-L-S-C*-K-G-P-(D-Nle)-NH2] ([pGlu]RCRLSCKGP[dNle]-NH2; disulfide 3-7) | – | > 1000 min | – |
| CC(C)C[C@@H]1NC(=O)[C@H](CCCNC(=N)N)NC(=O)[C@@H](NC(=O)[C@H](CCCNC(=N)N)NC(=O)[C@@H]2CCC(=O)N2)CSSCC[C@H](C(=O)N[C@@H](CCCCN)C(=O)NCC(=O)N2CCC[C@H]2C(=O)N[C@H](Cc2ccccc2)C(=O)N[C@H](C)C(=O)N[C@H](Cc2ccccc2)C(=O)O)NC(=O)[C@H](CO)NC1=O [Example 26, pE-R-C*-R-L-S-(D-hC)*-K-G-P-f-a-f-OH] ([pGlu]RCRLS[d(hCys)]KGP[dF][dA][dF]-OH; disulfide 3-7) | – | 52 min | – |
| CCCC[C@@H](NC(=O)[C@@H]1CCCN1C(=O)CNC(=O)[C@H](CCCCN)NC(=O)[C@@H]1CSSC[C@@H](NC(=O)[C@H](CCCNC(=N)N)NC(=O)[C@@H]2CCC(=O)N2)C(=O)N[C@@H](CCCNC(=N)N)C(=O)N[C@@H](CC(C)C)C(=O)N[C@@H](CO)C(=O)N1)C(=O)N[C@H](CC)C(=O)N[C@H](Cc1ccccc1)C(=O)O [Example 27, pE-R-c*-R-L-S-C*-K-G-P-(D-Nle)-(D-abu)-f-OH] ([pGlu]R[dC]RLSCKGP[dNle][dAbu][dF]-OH; disulfide 3-7) | – | 82 min | – |
| CCCC[C@H](NC(=O)[C@@H]1CCCN1C(=O)CNC(=O)[C@H](CCCCN)NC(=O)[C@@H]1CSSC[C@H](NC(=O)[C@@H]2CCCN2C(=O)[C@H](CCCNC(=N)N)NC(=O)[C@@H]2CCC(=O)N2)C(=O)N[C@@H](CC(C)C)C(=O)N[C@@H](CO)C(=O)N1)C(=O)N1CCC[C@H]1C(=O)NCCc1ccccc1 [Example 30, pE-R-P-C*-L-S-C*-K-G-P-Nle-P-NH(Phenethyl)] | – | 661 min | – |
| CCCC[C@H](NC(=O)[C@@H]1CCCN1C(=O)CNC(=O)[C@H](CCCCN)NC(=O)[C@@H]1CSSC[C@H](NC(=O)[C@@H]2CCCN2C(=O)[C@H](CCCNC(=N)N)NC(=O)[C@@H]2CCC(=O)N2)C(=O)N[C@@H](CC(C)C)C(=O)N[C@@H](CO)C(=O)N1)C(=O)NCCc1ccccc1 [Example 31, pE-R-P-C*-L-S-C*-K-G-P-Nle-NH(Phenethyl)] | – | 43.1 min | – |
| C=CCCCCCCCCCC(CCCCCCCCCCC(=O)O)(C(=O)O)C(=O)NCCOCCOCCOCCOCCOCCOCCOCCOCCOCCOCCOCCOCCOCCOCCOCCOCCOCCOCCOCCOCCOCCOCCOCCn1nnc2c1CC[C@H]1[C@@H](CC2)[C@H]1COC(=O)NCCCC[C@H](NC(=O)[C@@H]1CSSC[C@H](NC(=O)[C@@H]2CCCN2C(=O)[C@H](CCCNC(=N)N)NC(=O)[C@@H]2CCC(=O)N2)C(=O)N[C@@H](CC(C)C)C(=O)N[C@@H](CO)C(=O)N1)C(=O)NCC(=O)N1CCC[C@H]1C(=O)N[C@H](CCCC)C(=O)NCCc1ccccc1 (some centres unmarked) [Example 40] | – | – | > 1000 min |
